Experiment [1] concerns the target JAK2 (Homo sapiens, UniProt O60674). Kind of experiment: Enzymatic kinase assay (filter-binding / flashplate, 33P incorporation). The class given is biochemical. The following applies: enzymatic kinase selectivity. As to the method:
(§1) Two methods were used to analyze phosphorylated peptides and proteins produced by the listed tyrosine and serine/threonine-specific protein kinases: either using a filter-binding assay (FB), or using a flashplate assay (FP). The activities of protein kinases were assayed in the presence or absence of inhibitors, by measuring the incorporation of ^33P from [γ^33P]ATP into appropriate substrates.
(§2) 96-well polypropylene microplates were used to assay the activity in the FB mode. To determine the inhibitory activity of compounds 10 μL of compound dilutions were pipetted into 96-well plates followed by the addition of 10 μL of assay mix and 10 μL of individual enzymes. With the addition of the enzymes the reactions were initiated and continued at RT. The reactions were stopped by the addition of 50 μL of a 125 mM EDTA solution pH 8.0. The final concentration of DMSO in the enzyme assays was 1%.
(§3) Flashplates are available as 96-well standard (STFPs) or as streptavidin-(SAFPs) or nickel coated FPs (NiFPs) from Perkin Elmer. STFPs are 96-well polystyrene microplates in which the interior of each well is permanently coated with a thin layer of polystyrene-based scintillant. Streptavidin flashplates (SAFP) are 96 or 384-well STFPs coated with streptavidin. SAFPs are suitable for a wide variety of assay applications which utilize biotinylated capture molecules. NiFP or nickel chelate flashplates are 96- or 384-well STFPs coated with nickel chelate. NiFPs are designed for in-plate, radiometric assays which utilize 4- or 6-histidine tagged proteins and peptides.
(§4) All kinase assays were performed in STFPs for 60 mins at RT and stopped with 50 μL of 0.5% H3PO4 except PKA which were carried out in polypropylene 96- and 384-well plates, respectively. PKA assays were stopped with 50 μL of 125 mM EDTA (pH 8.0) and 50 μL were transferred to either SAFPs or NIFPs to capture the biotinylated or histidine tagged peptides phosphorylated by PKA (SAFP) or by NiFPs. All wells were then washed three times with 200 μL of 0.5% H3PO4 and the plates were dried at room temperature. The plates were sealed and counted in a microplate scintillation counter (TopCount NXT, TopCount NXT HTS). The final concentration of DMSO in the enzyme assays was 1%.

Experiment [2] addresses cKIT (Homo sapiens, UniProt P10721). The experiment is described as above. The following applies: enzymatic kinase selectivity. It counts as biochemical. The protocol: as §1, §2, §3, §4
Experiment [3] has as its target cMET (Homo sapiens, UniProt P08581). The experiment is described as above. The class given is biochemical. The following applies: enzymatic kinase selectivity. The protocol:
as §1, §2, §3, §4

For experiment [4], the target named is IGF1R (Homo sapiens, UniProt P08069). Kind of experiment: Cellular IGF-1R assay: inhibition of IGF1R phosphorylation in transduced Hek293 cells, capture ELISA (MSD). It counts as cell-based. More on the design: Hek293 cells transduced with the corresponding receptors; expressed in transfected cells; host or cells: Hek293 (Hek293-IGF1R). The method in brief: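 Serum-starved Hek293 cells transduced with IGF1R or InsR were pre-incubated 1 h with 3-fold dilutions from 10 μM (0.1% DMSO), then stimulated 10 min with 1.0 ng/μL IGF or 5.0 ng/μL insulin. pTyr1135/1136 (pINSR Tyr1150/1151) was read by MSD capture ELISA, normalised to stimulated vs unstimulated window; IC50 from 4-parameter fit.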
Chain of IGF1R (P08069 31-1367): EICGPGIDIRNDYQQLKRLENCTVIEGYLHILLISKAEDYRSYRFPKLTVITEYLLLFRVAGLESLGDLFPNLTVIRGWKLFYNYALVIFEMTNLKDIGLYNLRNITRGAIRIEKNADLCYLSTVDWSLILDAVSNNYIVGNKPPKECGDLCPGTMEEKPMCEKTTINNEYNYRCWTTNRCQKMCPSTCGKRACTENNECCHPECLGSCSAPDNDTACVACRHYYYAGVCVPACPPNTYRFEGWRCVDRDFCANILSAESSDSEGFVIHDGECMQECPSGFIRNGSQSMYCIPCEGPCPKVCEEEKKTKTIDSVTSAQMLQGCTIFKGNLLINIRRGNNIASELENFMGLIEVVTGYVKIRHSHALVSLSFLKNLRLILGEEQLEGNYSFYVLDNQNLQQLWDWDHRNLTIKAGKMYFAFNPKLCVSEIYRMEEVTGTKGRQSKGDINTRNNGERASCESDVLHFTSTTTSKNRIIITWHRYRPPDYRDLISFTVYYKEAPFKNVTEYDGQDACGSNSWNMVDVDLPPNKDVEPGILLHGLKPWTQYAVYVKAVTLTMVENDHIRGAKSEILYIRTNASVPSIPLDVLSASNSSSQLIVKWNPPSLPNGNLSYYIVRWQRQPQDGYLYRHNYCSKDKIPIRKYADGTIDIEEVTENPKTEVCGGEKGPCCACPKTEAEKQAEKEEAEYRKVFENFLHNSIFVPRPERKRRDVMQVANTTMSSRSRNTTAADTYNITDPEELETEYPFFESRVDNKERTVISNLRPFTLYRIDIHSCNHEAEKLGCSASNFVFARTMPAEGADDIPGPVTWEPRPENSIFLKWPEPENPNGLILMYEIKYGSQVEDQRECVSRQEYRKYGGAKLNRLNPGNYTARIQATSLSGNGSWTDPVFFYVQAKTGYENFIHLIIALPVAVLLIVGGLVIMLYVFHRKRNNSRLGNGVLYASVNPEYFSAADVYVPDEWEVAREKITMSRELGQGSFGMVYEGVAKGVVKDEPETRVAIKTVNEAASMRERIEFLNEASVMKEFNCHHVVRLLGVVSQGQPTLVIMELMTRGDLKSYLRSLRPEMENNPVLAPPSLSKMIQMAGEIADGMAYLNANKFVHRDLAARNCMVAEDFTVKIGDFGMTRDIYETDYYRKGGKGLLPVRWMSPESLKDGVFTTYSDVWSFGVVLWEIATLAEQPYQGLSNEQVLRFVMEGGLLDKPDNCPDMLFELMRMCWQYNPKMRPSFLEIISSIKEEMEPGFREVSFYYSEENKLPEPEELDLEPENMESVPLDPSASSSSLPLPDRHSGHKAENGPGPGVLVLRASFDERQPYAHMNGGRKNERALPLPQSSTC
In general terms: ELISA stands for enzyme-linked immunosorbent assay.

Chain of cKIT (P10721 26-976): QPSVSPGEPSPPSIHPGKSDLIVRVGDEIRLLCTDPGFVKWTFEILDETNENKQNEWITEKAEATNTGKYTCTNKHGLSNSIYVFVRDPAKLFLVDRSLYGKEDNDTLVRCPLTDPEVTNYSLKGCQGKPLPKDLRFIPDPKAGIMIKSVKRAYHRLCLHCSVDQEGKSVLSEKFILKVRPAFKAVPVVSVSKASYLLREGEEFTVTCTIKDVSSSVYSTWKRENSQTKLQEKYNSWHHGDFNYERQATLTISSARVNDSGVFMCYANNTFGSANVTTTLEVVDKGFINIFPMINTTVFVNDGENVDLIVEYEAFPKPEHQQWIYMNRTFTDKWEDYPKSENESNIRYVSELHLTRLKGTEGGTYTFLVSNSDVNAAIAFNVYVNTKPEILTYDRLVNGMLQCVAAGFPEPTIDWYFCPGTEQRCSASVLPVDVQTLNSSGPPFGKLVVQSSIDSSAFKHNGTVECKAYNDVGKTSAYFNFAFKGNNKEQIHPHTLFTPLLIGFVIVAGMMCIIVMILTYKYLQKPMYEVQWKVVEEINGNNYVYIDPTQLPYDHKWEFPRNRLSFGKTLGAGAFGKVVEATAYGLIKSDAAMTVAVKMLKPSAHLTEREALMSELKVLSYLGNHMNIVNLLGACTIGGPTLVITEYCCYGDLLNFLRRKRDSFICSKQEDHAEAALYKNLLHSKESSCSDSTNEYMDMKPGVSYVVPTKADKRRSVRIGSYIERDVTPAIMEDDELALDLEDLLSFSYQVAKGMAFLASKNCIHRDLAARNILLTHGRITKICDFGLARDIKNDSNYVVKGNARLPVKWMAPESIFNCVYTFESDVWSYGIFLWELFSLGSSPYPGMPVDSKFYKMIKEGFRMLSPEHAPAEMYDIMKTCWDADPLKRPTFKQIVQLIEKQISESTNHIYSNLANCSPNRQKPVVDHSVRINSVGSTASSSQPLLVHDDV
Chain of cMET (P08581 25-1390): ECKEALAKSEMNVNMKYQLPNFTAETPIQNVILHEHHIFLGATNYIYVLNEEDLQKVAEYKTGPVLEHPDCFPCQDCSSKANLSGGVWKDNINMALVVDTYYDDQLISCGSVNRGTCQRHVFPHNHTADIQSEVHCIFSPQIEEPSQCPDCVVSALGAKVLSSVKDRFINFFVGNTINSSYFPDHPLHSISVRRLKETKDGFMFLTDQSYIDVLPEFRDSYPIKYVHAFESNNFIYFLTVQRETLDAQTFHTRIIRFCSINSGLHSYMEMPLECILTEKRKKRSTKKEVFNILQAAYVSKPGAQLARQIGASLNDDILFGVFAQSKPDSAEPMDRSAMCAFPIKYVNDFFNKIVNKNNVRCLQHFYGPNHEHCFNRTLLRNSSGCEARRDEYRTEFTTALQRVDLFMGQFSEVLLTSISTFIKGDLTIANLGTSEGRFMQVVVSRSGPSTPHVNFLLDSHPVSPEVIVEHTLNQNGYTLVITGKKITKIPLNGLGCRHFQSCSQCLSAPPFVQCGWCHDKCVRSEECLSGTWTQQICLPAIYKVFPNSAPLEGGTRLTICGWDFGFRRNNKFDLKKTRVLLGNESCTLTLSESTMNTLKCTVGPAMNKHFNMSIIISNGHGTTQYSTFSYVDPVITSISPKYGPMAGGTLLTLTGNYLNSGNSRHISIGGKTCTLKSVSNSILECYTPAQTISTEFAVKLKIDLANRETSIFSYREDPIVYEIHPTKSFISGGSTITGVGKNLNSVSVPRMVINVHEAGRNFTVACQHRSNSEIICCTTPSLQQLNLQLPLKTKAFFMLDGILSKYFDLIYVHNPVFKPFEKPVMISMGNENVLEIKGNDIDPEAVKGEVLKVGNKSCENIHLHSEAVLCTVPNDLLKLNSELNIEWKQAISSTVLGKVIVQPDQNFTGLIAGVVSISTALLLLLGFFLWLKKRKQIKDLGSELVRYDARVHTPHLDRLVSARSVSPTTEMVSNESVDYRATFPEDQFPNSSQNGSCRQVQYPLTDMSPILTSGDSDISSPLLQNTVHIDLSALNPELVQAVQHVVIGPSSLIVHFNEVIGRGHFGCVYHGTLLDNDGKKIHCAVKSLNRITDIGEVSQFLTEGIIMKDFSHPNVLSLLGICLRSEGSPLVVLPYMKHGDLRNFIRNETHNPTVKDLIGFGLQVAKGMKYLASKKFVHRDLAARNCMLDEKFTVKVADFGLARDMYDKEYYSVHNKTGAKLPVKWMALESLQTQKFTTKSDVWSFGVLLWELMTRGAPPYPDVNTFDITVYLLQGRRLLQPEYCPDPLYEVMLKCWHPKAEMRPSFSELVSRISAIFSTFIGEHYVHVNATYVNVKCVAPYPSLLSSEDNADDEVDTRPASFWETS
Chain of JAK2 (O60674 whole entry, species assumed): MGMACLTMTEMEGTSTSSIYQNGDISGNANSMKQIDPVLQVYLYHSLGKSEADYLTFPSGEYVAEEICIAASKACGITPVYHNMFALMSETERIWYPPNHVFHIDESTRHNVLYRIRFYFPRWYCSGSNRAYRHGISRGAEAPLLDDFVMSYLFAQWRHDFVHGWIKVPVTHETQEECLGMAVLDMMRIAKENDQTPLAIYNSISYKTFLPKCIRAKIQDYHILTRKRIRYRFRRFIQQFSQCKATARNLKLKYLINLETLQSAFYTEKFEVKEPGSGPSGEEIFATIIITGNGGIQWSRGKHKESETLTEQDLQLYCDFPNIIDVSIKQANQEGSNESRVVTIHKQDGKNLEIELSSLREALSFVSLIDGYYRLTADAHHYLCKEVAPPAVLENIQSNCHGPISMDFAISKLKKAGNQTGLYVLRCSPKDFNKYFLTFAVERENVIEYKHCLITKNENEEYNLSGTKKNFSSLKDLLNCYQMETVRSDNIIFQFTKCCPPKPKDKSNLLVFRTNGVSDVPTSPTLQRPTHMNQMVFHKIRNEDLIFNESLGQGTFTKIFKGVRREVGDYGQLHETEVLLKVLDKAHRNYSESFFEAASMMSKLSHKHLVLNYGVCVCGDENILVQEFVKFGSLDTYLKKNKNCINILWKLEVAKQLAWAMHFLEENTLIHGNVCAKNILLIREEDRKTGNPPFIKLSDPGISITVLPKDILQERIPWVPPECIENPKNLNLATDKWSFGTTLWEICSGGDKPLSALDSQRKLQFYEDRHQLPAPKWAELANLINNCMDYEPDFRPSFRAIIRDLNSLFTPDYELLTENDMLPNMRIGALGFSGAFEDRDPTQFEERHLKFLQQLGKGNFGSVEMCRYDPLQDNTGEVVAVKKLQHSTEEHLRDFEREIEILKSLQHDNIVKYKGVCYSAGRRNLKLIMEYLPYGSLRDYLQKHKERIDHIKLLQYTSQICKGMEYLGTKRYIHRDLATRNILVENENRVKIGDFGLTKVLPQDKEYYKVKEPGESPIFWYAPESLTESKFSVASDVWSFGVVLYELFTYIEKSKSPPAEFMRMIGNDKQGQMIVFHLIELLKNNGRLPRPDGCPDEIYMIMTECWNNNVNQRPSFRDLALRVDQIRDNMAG

What is called IC50 is the point on the concentration scale where inhibition reaches its midpoint. Read a high IC50 as lower potency. Regarding `CC(=O)NC[C@H]1C[C@@H](n2cc(-c3ccc4c(c3)OC(c3ccccc3)CC4)c3c(N)ncnc32)C1` (mixture of isomers) [Example 16, (R,S)—N-{cis-3-[4-Amino-5-(2-phenyl-chroman-7-yl)-pyrrolo[2,3-d]pyrimidin-7-yl]-cyclobutylmethyl}-acetamide], the IC50 in experiment [1] is > 10000 nM; in experiment [2] it was 3200 nM; in experiment [3], > 10000 nM; in experiment [4], 0.022 µM.

Regarding `Nc1ncnc2c1c(-c1ccc3c(c1)OC(c1ccccc1)C=C3)cn2[C@H]1C[C@@H](CN2CCS(=O)(=O)CC2)C1` (mixture of isomers) [Example 21, (R,S)-7-[cis-3-(1,1-Dioxo-1-thiomorpholin-4-ylmethyl)-cyclobutyl]-5-(2-phenyl-2H-chromen-7-yl)-7H-pyrrolo[2,3-d]pyrimidin-4-ylamine], the IC50 in experiment [1] was > 10000 nM; in experiment [2] it was 770 nM; in experiment [3], > 10000 nM; in experiment [4] it was 0.009 µM.

On to `CC(=O)N1CCN([C@H]2C[C@@H](n3cc(-c4ccc5c(c4)OC(c4ccccc4)CC5)c4c(N)ncnc43)C2)CC1` (relative stereo) [Example 38, 1-(4-{cis-3-[4-Amino-5-(2-phenyl-chroman-7-yl)-pyrrolo[2,3-d]pyrimidin-7-yl]-cyclobutyl}-piperazin-1-yl)-ethanone], for which the IC50 was > 10000 nM in experiment [1], 6000 nM in experiment [2], > 10000 nM in experiment [3] and 0.011 µM in experiment [4].

On to `Nc1ncnc2c1c(-c1ccc3c(c1)OC(c1ccccc1)CC3)cn2C1CC(O)(CO)C1` (single isomer, unassigned) [Example 26], for which the IC50 is > 10000 nM in experiment [1], > 10000 nM in experiment [2], > 10000 nM in experiment [3] and 0.027 to 0.106 µM in experiment [4].

Values taken from patent US20120289501A1, “Benzene-fused 6-membered oxygen-containing heterocyclic derivatives of bicyclic heteroaryls” (NOVARTIS AG, priority 2009, published 2012).
